Values after ≈ are worked out from the molar mass of the structure shown. Active and inactive are the calls of the source. The rule behind the calls is not given here.
Assays:
Type in all cases: functional
Staphylococcus aureus [1] = test: Antibacterial activity against methicillin resistant Staphylococcus aureus MRSA090 at 100 ug/ml after 24 hrs by agar well diffusion method; settings: MRSA090, 24 h, read-out: DIZ
Staphylococcus aureus [2] = test: Antibacterial activity against Staphylococcus aureus incubated for overnight by microdilution method
Staphylococcus aureus [3] = test: Antibacterial activity against methicillin resistant Staphylococcus aureus MRSA090 at 25 ug/ml after 24 hrs by agar well diffusion method; settings: MRSA090, 24 h, read-out: DIZ
Staphylococcus aureus [4] = test: Antibacterial activity against methicillin resistant Staphylococcus aureus MRSA090 at 75 ug/ml after 24 hrs by agar well diffusion method; settings: MRSA090, 24 h, read-out: DIZ
Bacillus subtilis [5] = test: Antibacterial activity against Bacillus subtilis incubated for overnight by microdilution method
Escherichia coli [6] = test: Antibacterial activity against Escherichia coli incubated for overnight by microdilution method
Klebsiella pneumoniae [7] = test: Antibacterial activity against Klebsiella pneumoniae incubated for overnight by microdilution method
Staphylococcus aureus [8] = test: Antibacterial activity against methicillin resistant Staphylococcus aureus MRSA090 at 50 ug/ml after 24 hrs by agar well diffusion method; settings: MRSA090, 24 h, read-out: DIZ
Staphylococcus aureus [9] = test: Antibacterial activity against methicillin resistant Staphylococcus aureus MRSA090 incubated for overnight by microdilution method
Escherichia coli [10] = test: Antibacterial activity against Escherichia coli at 75 ug/ml after 24 hrs by agar well diffusion method; settings: read-out: DIZ
Aspergillus niger [11] = test: Antifungal activity against Aspergillus niger at 75 ug/ml after 48 hrs by agar well diffusion method
Staphylococcus aureus [12] = test: Antibacterial activity against Staphylococcus aureus at 75 ug/ml after 24 hrs by agar well diffusion method; settings: read-out: DIZ
Escherichia coli [13] = test: Antibacterial activity against Escherichia coli at 100 ug/ml after 24 hrs by agar well diffusion method; settings: read-out: DIZ
Aspergillus niger [14] = test: Antifungal activity against Aspergillus niger at 50 ug/ml after 48 hrs by agar well diffusion method
Fusarium oxysporum [15] = test: Antifungal activity against Fusarium oxysporum at 25 ug/ml after 48 hrs by agar well diffusion method
Staphylococcus aureus [16] = test: Antibacterial activity against Staphylococcus aureus at 100 ug/ml after 24 hrs by agar well diffusion method; settings: read-out: DIZ
Fusarium oxysporum [17] = test: Antifungal activity against Fusarium oxysporum at 75 ug/ml after 48 hrs by agar well diffusion method
Fusarium verticillioides [18] = test: Antifungal activity against Fusarium moniliforme at 25 ug/ml after 48 hrs by agar well diffusion method
Staphylococcus aureus [19] = test: Antibacterial activity against Staphylococcus aureus at 50 ug/ml after 24 hrs by agar well diffusion method; settings: read-out: DIZ
Fusarium verticillioides [20] = test: Antifungal activity against Fusarium moniliforme at 100 ug/ml after 48 hrs by agar well diffusion method
Klebsiella pneumoniae [21] = test: Antibacterial activity against Klebsiella pneumoniae at 100 ug/ml after 24 hrs by agar well diffusion method; settings: read-out: DIZ
Staphylococcus aureus [22] = test: Antibacterial activity against Staphylococcus aureus at 25 ug/ml after 24 hrs by agar well diffusion method; settings: read-out: DIZ
Bacillus subtilis [23] = test: Antibacterial activity against Bacillus subtilis at 75 ug/ml after 24 hrs by agar well diffusion method; settings: read-out: DIZ
Aspergillus niger [24] = test: Antifungal activity against Aspergillus niger at 100 ug/ml after 48 hrs by agar well diffusion method
Fusarium oxysporum [25] = test: Antifungal activity against Fusarium oxysporum at 50 ug/ml after 48 hrs by agar well diffusion method
Klebsiella pneumoniae [26] = test: Antibacterial activity against Klebsiella pneumoniae at 75 ug/ml after 24 hrs by agar well diffusion method; settings: read-out: DIZ
Escherichia coli [27] = test: Antibacterial activity against Escherichia coli at 25 ug/ml after 24 hrs by agar well diffusion method; settings: read-out: DIZ
Bacillus subtilis [28] = test: Antibacterial activity against Bacillus subtilis at 100 ug/ml after 24 hrs by agar well diffusion method; settings: read-out: DIZ
Bacillus subtilis [29] = test: Antibacterial activity against Bacillus subtilis at 25 ug/ml after 24 hrs by agar well diffusion method; settings: read-out: DIZ
Klebsiella pneumoniae [30] = test: Antibacterial activity against Klebsiella pneumoniae at 25 ug/ml after 24 hrs by agar well diffusion method; settings: read-out: DIZ
Escherichia coli [31] = test: Antibacterial activity against Escherichia coli at 50 ug/ml after 24 hrs by agar well diffusion method; settings: read-out: DIZ
Fusarium oxysporum [32] = test: Antifungal activity against Fusarium oxysporum at 100 ug/ml after 48 hrs by agar well diffusion method
Fusarium verticillioides [33] = test: Antifungal activity against Fusarium moniliforme at 50 ug/ml after 48 hrs by agar well diffusion method
Klebsiella pneumoniae [34] = test: Antibacterial activity against Klebsiella pneumoniae at 50 ug/ml after 24 hrs by agar well diffusion method; settings: read-out: DIZ
Fusarium verticillioides [35] = test: Antifungal activity against Fusarium moniliforme at 75 ug/ml after 48 hrs by agar well diffusion method
Bacillus subtilis [36] = test: Antibacterial activity against Bacillus subtilis at 50 ug/ml after 24 hrs by agar well diffusion method; settings: read-out: DIZ
Aspergillus niger [37] = test: Antifungal activity against Aspergillus niger at 25 ug/ml after 48 hrs by agar well diffusion method

Row | SMILES | zone of inhibition at 100 µg/mL (Staphylococcus aureus [1]) | MIC (Staphylococcus aureus [2]) | zone of inhibition at 25 µg/mL (Staphylococcus aureus [3]) | zone of inhibition at 75 µg/mL (Staphylococcus aureus [4]) | MIC (Bacillus subtilis [5]) | MIC (Escherichia coli [6]) | zone of inhibition at 50 µg/mL (Staphylococcus aureus [8]) | MIC (Staphylococcus aureus [9]) | zone of inhibition at 75 µg/mL (Escherichia coli [10]) | zone of inhibition at 75 µg/mL (Staphylococcus aureus [12]) | zone of inhibition at 100 µg/mL (Escherichia coli [13]) | zone of inhibition at 100 µg/mL (Staphylococcus aureus [16]) | zone of inhibition at 50 µg/mL (Staphylococcus aureus [19]) | zone of inhibition at 100 µg/mL (Klebsiella pneumoniae [21]) | zone of inhibition at 25 µg/mL (Staphylococcus aureus [22]) | zone of inhibition at 75 µg/mL (Bacillus subtilis [23]) | zone of inhibition at 75 µg/mL (Klebsiella pneumoniae [26]) | zone of inhibition at 25 µg/mL (Escherichia coli [27]) | zone of inhibition at 100 µg/mL (Bacillus subtilis [28]) | zone of inhibition at 25 µg/mL (Bacillus subtilis [29]) | also measured
1 | CO[C@H]1/C=C/O[C@@]2(C)Oc3c(C)c(O)c4c(O)c(c(/C=N/N5CCN(C)CC5)c(O)c4c3C2=O)NC(=O)/C(C)=C\C=C\[C@H](C)[C@H](O)[C@@H](C)[C@@H](O)[C@@H](C)[C@H](OC(C)=O)[C@@H]1C [RIFAMPIN] | 33 mm | 21 µg/mL (≈ 25.5 µM) | 23 mm | 30 mm | 21 µg/mL (≈ 25.5 µM) | 22 µg/mL (≈ 26.7 µM) | 27 mm | 22 µg/mL (≈ 26.7 µM) |  |  |  |  |  |  |  |  |  |  |  |  | MIC (Klebsiella pneumoniae [7]): 22 µg/mL (≈ 26.7 µM)
2 | COc1ccc(/C=N/Nc2nc3cccc(C)c3s2)cc1 | 21 mm | 30 µg/mL (≈ 101 µM) | 10 mm | 16 mm | 28 µg/mL (≈ 94.2 µM) | 27 µg/mL (≈ 90.8 µM) | 13 mm | 32 µg/mL (≈ 108 µM) | 15 mm | 19 mm | 10 mm | 24 mm | 14 mm | 22 mm | 12 mm | 20 mm | 20 mm | 10 mm | 26 mm | 13 mm | zone of inhibition at 75 µg/mL (Aspergillus niger [11]; read-out: DIZ): 14 mm; zone of inhibition at 50 µg/mL (Aspergillus niger [14]; read-out: DIZ): 11 mm; diameter of the inhibition zone (DIZ) (Fusarium oxysporum [15]): inactive; diameter of the inhibition zone (DIZ) (Fusarium oxysporum [17]): inactive; diameter of the inhibition zone (DIZ) (Fusarium verticillioides [18]): inactive; diameter of the inhibition zone (DIZ) (Fusarium verticillioides [20]): inactive; zone of inhibition at 100 µg/mL (Aspergillus niger [24]; read-out: DIZ): 16 mm; diameter of the inhibition zone (DIZ) (Fusarium oxysporum [25]): inactive; zone of inhibition at 25 µg/mL (Klebsiella pneumoniae [30]): 14 mm; zone of inhibition at 50 µg/mL (Escherichia coli [31]): 12 mm; diameter of the inhibition zone (DIZ) (Fusarium oxysporum [32]): inactive; diameter of the inhibition zone (DIZ) (Fusarium verticillioides [33]): inactive; zone of inhibition at 50 µg/mL (Klebsiella pneumoniae [34]): 16 mm; diameter of the inhibition zone (DIZ) (Fusarium verticillioides [35]): inactive; zone of inhibition at 50 µg/mL (Bacillus subtilis [36]): 18 mm; zone of inhibition at 25 µg/mL (Aspergillus niger [37]; read-out: DIZ): 8 mm
3 | O=C(N[C@H](CO)[C@H](O)c1ccc([N+](=O)[O-])cc1)C(Cl)Cl [CHLORAMPHENICOL] | 31 mm | 27 µg/mL (≈ 83.6 µM) | 19 mm | 27 mm | 27 µg/mL (≈ 83.6 µM) | 25 µg/mL (≈ 77.4 µM) | 22 mm | 25 µg/mL (≈ 77.4 µM) | 32 mm | 34 mm | 38 mm | 37 mm | 28 mm | 36 mm | 24 mm | 31 mm | 33 mm | 23 mm | 34 mm | 21 mm | MIC (Klebsiella pneumoniae [7]): 28 µg/mL (≈ 86.7 µM); zone of inhibition at 25 µg/mL (Klebsiella pneumoniae [30]): 24 mm; zone of inhibition at 50 µg/mL (Escherichia coli [31]): 27 mm; zone of inhibition at 50 µg/mL (Klebsiella pneumoniae [34]): 29 mm; zone of inhibition at 50 µg/mL (Bacillus subtilis [36]): 25 mm
4 | Cc1cccc2nc(N/N=C/c3ccc(O)cc3)sc12 | 24 mm | 28 µg/mL (≈ 98.8 µM) | 14 mm | 21 mm | 26 µg/mL (≈ 91.8 µM) | 25 µg/mL (≈ 88.2 µM) | 17 mm | 30 µg/mL (≈ 106 µM) | 22 mm | 20 mm | 25 mm | 23 mm | 16 mm | 26 mm | 10 mm | 18 mm | 22 mm | 17 mm | 21 mm | 11 mm | diameter of the inhibition zone (DIZ) (Aspergillus niger [11]): inactive; diameter of the inhibition zone (DIZ) (Aspergillus niger [14]): inactive; diameter of the inhibition zone (DIZ) (Fusarium oxysporum [15]): inactive; diameter of the inhibition zone (DIZ) (Fusarium oxysporum [17]): inactive; zone of inhibition at 25 µg/mL (Fusarium verticillioides [18]; read-out: DIZ): 8 mm; zone of inhibition at 100 µg/mL (Fusarium verticillioides [20]; read-out: DIZ): 17 mm; diameter of the inhibition zone (DIZ) (Aspergillus niger [24]): inactive; diameter of the inhibition zone (DIZ) (Fusarium oxysporum [25]): inactive; zone of inhibition at 25 µg/mL (Klebsiella pneumoniae [30]): 14 mm; zone of inhibition at 50 µg/mL (Escherichia coli [31]): 19 mm; diameter of the inhibition zone (DIZ) (Fusarium oxysporum [32]): inactive; zone of inhibition at 50 µg/mL (Fusarium verticillioides [33]; read-out: DIZ): 10 mm; zone of inhibition at 50 µg/mL (Klebsiella pneumoniae [34]): 17 mm; zone of inhibition at 75 µg/mL (Fusarium verticillioides [35]; read-out: DIZ): 13 mm; zone of inhibition at 50 µg/mL (Bacillus subtilis [36]): 14 mm; diameter of the inhibition zone (DIZ) (Aspergillus niger [37]): inactive
